Experimental data published in ChEMBL document CHEMBL1201862, “PubChem BioAssay data set” (2004).
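Interpolation was linear, between the two tested concentrations surrounding the appropriate level; five concentrations were tested over 48 hours in 96-well plates. GI50: concentration for 50% inhibition of growth.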 Active and inactive are the calls of the source. No stated cut-off is given here; in the data, active = GI50 up to about 1.1 µM and inactive = higher.

Tests used:
Test in all cases: growth of human tumour cells (NCI), 48 h
[1] = tested on: A498
[2] = tested on: HOP-92
[3] = tested on: DMS-273
[4] = tested on: SW-620
[5] = tested on: SK-OV-3
[6] = tested on: MOLT-4
[7] = tested on: ACHN
[8] = tested on: LXFL 529
[9] = tested on: CCRF-CEM
[10] = tested on: UO-31
[11] = tested on: KM-20L2
[12] = tested on: HCT-116
[13] = tested on: SF-539
[14] = tested on: XF498
[15] = tested on: SF-295
[16] = tested on: 786-0
[17] = tested on: IGROV-1
[18] = tested on: RXF 631
[19] = tested on: M19-MEL
[20] = tested on: DLD-1
[21] = tested on: NCI-H460
[22] = tested on: SNB-19
[23] = tested on: RXF 393
[24] = tested on: SK-MEL-5
[25] = tested on: SK-MEL-28
[26] = tested on: COLO 205
[27] = tested on: RPMI-8226
[28] = tested on: SK-MEL-2
[29] = tested on: TK-10
[30] = tested on: HCC 2998
[31] = tested on: OVCAR-8
[32] = tested on: LOX IMVI
[33] = tested on: KM12
[34] = tested on: SNB-78
[35] = tested on: EKVX
[36] = tested on: NCI-H522
[37] = tested on: OVCAR-3
[38] = tested on: HCT-15
[39] = tested on: NCI-H23
[40] = tested on: NCI-H226
[41] = tested on: SNB-75
[42] = tested on: HL-60
[43] = tested on: HOP-62
[44] = tested on: A549
[45] = tested on: M14
[46] = tested on: HOP-18
[47] = tested on: UACC-257
[48] = tested on: K562
[49] = tested on: OVCAR-5
[50] = tested on: SR
[51] = tested on: UACC-62
[52] = tested on: DMS-114
[53] = tested on: SN12C
[54] = tested on: U-251
[55] = tested on: SF-268
[56] = tested on: OVCAR-4
[57] = tested on: Malme-3M
[58] = tested on: HT-29

`CC1=CC=NN2C(=O)[C@H](C)C2C1` (stereo partly drawn) was tested, and the GI50 [1] was > 100 µM (inactive), the GI50 [2] was > 100 µM (inactive) and the GI50 [3] was > 100 µM (inactive). The GI50 [4] was > 100 µM (inactive), the GI50 [5] was > 100 µM (inactive) and the GI50 [6] was > 100 µM (inactive). The GI50 [7] was > 100 µM (inactive), the GI50 [8] was > 100 µM (inactive) and the GI50 [9] was > 100 µM (inactive). For the same compound, the GI50 [10] was > 100 µM (inactive), the GI50 [11] was > 100 µM (inactive) and the GI50 [12] was > 100 µM (inactive). For the same compound, the GI50 [13] was > 100 µM (inactive), the GI50 [14] was > 100 µM (inactive) and the GI50 [15] was > 100 µM (inactive). The GI50 [16] was > 100 µM (inactive), the GI50 [17] was > 100 µM (inactive) and the GI50 [18] was > 100 µM (inactive). For the same compound, the GI50 [19] was > 100 µM (inactive), the GI50 [20] was > 100 µM (inactive) and the GI50 [21] was > 100 µM (inactive). For the same compound, the GI50 [22] was > 100 µM (inactive), the GI50 [23] was > 100 µM (inactive) and the GI50 [24] was > 100 µM (inactive). The GI50 [25] was > 100 µM (inactive), the GI50 [26] was > 100 µM (inactive) and the GI50 [27] was > 100 µM (inactive). The GI50 [28] was > 100 µM (inactive), the GI50 [29] was > 100 µM (inactive) and the GI50 [30] was > 100 µM (inactive). For the same compound, the GI50 [31] was > 100 µM (inactive), the GI50 [32] was > 100 µM (inactive) and the GI50 [33] was > 100 µM (inactive). For the same compound, the GI50 [34] was > 100 µM (inactive), the GI50 [35] was > 100 µM (inactive) and the GI50 [36] was > 100 µM (inactive). The GI50 [37] was > 100 µM (inactive), the GI50 [38] was over 100 µM and the GI50 [39] was > 100 µM (inactive). For the same compound, the GI50 [40] was > 100 µM (inactive), the GI50 [41] was > 100 µM (inactive) and the GI50 [42] was > 100 µM (inactive). The GI50 [43] was > 100 µM (inactive), the GI50 [44] was > 100 µM (inactive) and the GI50 [45] was > 100 µM (inactive). For the same compound, the GI50 [46] was > 100 µM (inactive), the GI50 [47] was > 100 µM (inactive) and the GI50 [48] was > 100 µM (inactive). For the same compound, the GI50 [49] was > 100 µM (inactive), the GI50 [50] was > 100 µM (inactive) and the GI50 [51] was > 100 µM (inactive). The GI50 [52] was > 100 µM (inactive), the GI50 [53] was > 100 µM (inactive) and the GI50 [54] was > 100 µM (inactive). The GI50 [55] was > 100 µM (inactive), the GI50 [56] was > 100 µM (inactive) and the GI50 [57] was > 100 µM (inactive). The GI50 [58] was > 100 µM (inactive).
